According to patent US20220267352A1, “RAPAMYCIN ANALOGS AND USES THEREOF” (Anakuria Therapeutics, Inc., priority 2021, published 2022):

Key:
Assay type in all cases: cell-based
[1] = tested on: mTORC1 over mTORC2; assay: mTORC1 over mTORC2 selectivity by comparing pS6K1 and pAKT IC50; settings: by comparing pS6K1 and pAKT IC50, 90 min
Procedure, shortened: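 MCF-7 cells were treated with compounds (0.5% final DMSO) for 90 minutes in one protocol and 2 hours in the other, then lysed. Phospho-signal in lysates was read by bead-based donor/acceptor proximity assay. pS6K1 and pAKT IC50 values were compared to judge mTORC1 over mTORC2 selectivity, at 90 min and at 24 hrs.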

[2] = tested on: p-p70 S6 Kinase (Thr389) in MCF-7 cells; assay: AlphaLISA Ultra pS6K1 assay; settings: Homo sapiens, 1.5 h; MCF7 cells, 90 min
Procedure, shortened: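 Phospho-S6K1 (Thr389) quantified by AlphaLISA Ultra read-out (2 h acceptor, then 2 h donor beads) in lysates of MCF-7 cells. Cells were plated 20–24 h before, refed 2 h, exposed to compounds for 90 min at 0.5% final DMSO, and lysates stored at −80 °C.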

[3] = tested on: p-Akt 1/2/3 (Ser473) in MCF-7 cells; assay: AlphaLISA Ultra pAKT assay; settings: Homo sapiens, 1.5 h; MCF7 cells, 90 min
Procedure, shortened: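 MCF-7 cells (16,000˜20,000 per well in 36 μL medium) were seeded in Corning 3701 plates for 20˜24 hour, refreshed with new medium for 90 minutes, then given 12 μL of 4× compound (0.5% final DMSO). Cells were lysed with 2× lysis buffer, and lysate was analyzed by AlphaLISA Ultra pAKT using acceptor and donor beads, read on an EnSpire reader.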

SMILES | IC50 [2] [nM] | IC50 [3] [nM] | mTORC1 selective @ 90 min [1]
CO[C@@H]1C[C@H](C[C@@H](C)[C@@H]2CC(=O)[C@H](C)/C=C(\C)[C@@H](O)[C@@H](OC)C(=O)[C@H](C)C[C@H](C)/C=C/C=C/C=C(\C)[C@H](OCCOC3COC3)C[C@@H]3CC[C@@H](C)[C@@](O)(O3)C(=O)C(=O)N3CCCC[C@H]3C(=O)O2)CC[C@H]1OCCCN1C[C@@H](C)O[C@@H](C)C1 [I-100, (27E,29E,31E,32E,39R,40S,41R,44R,46S,48S,50R,51S,53R,54R,63R)-51-[(1R)-2-[(1S,3R,4R)-4-[3-[(2S,6R)-2,6-dimethylmorpholin-4-yl]propoxy]-3-methoxy-cyclohexyl]-1-methyl-ethyl]-53,63-dihydroxy-54-methoxy-39,40,41,44,55,56-hexamethyl-50-[2-(oxetan-3-yloxy)ethoxy]-75,76-dioxa-64-azatricyclohexatriaconta-27,29,31(55),32(56)-tetraene-57,58,59,60,61-pentone] | 1 to 10 | ≥ 1000 | Yes
CO[C@@H]1C[C@H](C[C@@H](C)[C@@H]2CC(=O)[C@H](C)/C=C(\C)[C@@H](O)[C@@H](OC)C(=O)[C@H](C)C[C@H](C)/C=C/C=C/C=C(\C)[C@H](OCCOC3COC3)C[C@@H]3CC[C@@H](C)[C@@](O)(O3)C(=O)C(=O)N3CCCC[C@H]3C(=O)O2)CC[C@H]1OC(F)F [I-104, (23E,25E,27E,28E,32R,33S,34R,35R,37S,39S,41R,42S,44R,45R,55R)-42-[(1R)-2-[(1S,3R,4R)-4-(difluoromethoxy)-3-methoxy-cyclohexyl]-1-methyl-ethyl]-44,55-dihydroxy-45-methoxy-32,33,34,35,46,47-hexamethyl-41-[2-(oxetan-3-yloxy)ethoxy]-65,66-dioxa-56-azatricyclohexatriaconta-23,25,27(46),28(47)-tetraene-48,49,50,51,52-pentone] | 10 to 100 | ≥ 1000 | Yes
CO[C@@H]1/C(C)=C/[C@@H](C)C(=O)C[C@@H]([C@H](C)C[C@@H]2CC[C@@H](O)[C@H](OC)C2)OC(=O)[C@@H]2CCCCN2C(=O)C(=O)[C@]2(O)O[C@@H](CC[C@H]2C)C[C@@H](OCCOC2COC2)/C(C)=C/C=C/C=C/[C@@H](C)C[C@@H](C)C(=O)[C@@H]1OC [I-96] | ≥ 1000 | ≥ 1000 | No
CO[C@@H]1/C(C)=C/[C@@H](C)C(=O)C[C@@H]([C@H](C)C[C@@H]2CC[C@@H](OC)[C@H](OC)C2)OC(=O)[C@@H]2CCCCN2C(=O)C(=O)[C@]2(O)O[C@@H](CC[C@H]2C)CC(OCCOCCN(C)C)/C(C)=C/C=C/C=C/[C@@H](C)C[C@@H](C)C(=O)[C@@H]1OC (stereo partly drawn) [I-95, (25E,27E,29E,30E,36R,37S,38R,39R,41S,43S,46S,47R,48R,57R)-46-[(1R)-2-[(1S,3R,4R)-3,4-dimethoxycyclohexyl]-1-methyl-ethyl]-45-[2-[2-(dimethylamino)ethoxy]ethoxy]-57-hydroxy-47,48-dimethoxy-36,37,38,39,49,50-hexamethyl-66,67-dioxa-58-azatricyclohexatriaconta-25,27,29(49),30(50)-tetraene-51,52,53,54,55-pentone] | 100 to 1000 | ≥ 1000 | Yes
CO[C@@H]1/C(C)=C/[C@@H](C)C(=O)C[C@@H]([C@H](C)C[C@@H]2CC[C@@H](O)[C@H](OC)C2)OC(=O)[C@@H]2CCCCN2C(=O)C(=O)[C@]2(O)O[C@@H](CC[C@H]2C)CC(OCCOC2COC2)/C(C)=C/C=C/C=C/[C@@H](C)C[C@@H](C)C(=O)[C@@H]1OC (stereo partly drawn) [I-11, (3S,6R,7E,9R,10R,12R,14S,15E,17E,19E,23S,26R,27R,34aS)-27-hydroxy-3-((R)-1-((1S,3R,4R)-4-hydroxy-3-methoxycyclohexyl)propan-2-yl)-9,10-dimethoxy-6,8,12,14,20,26-hexamethyl-21-(2-(oxetan-3-yloxy)ethoxy)-9,10,12,13,14,21,22,23,24,25,26,27,32,33,34,34a-hexadecahydro-3H-23,27-epoxypyrido[2,1-c][1]oxa[4]azacyclohentriacontine-1,5,11,28,29(4H,6H,31H)-pentaone] | 10 to 100 | ≥ 1000 | Yes

Continued, in another order:

IC50 [2] [nM] | IC50 [3] [nM] | SMILES | mTORC1 selective @ 90 min [1]
1 to 10 | ≥ 1000 | CO[C@@H]1C[C@H](C[C@@H](C)[C@@H]2CC(=O)[C@H](C)/C=C(\C)[C@@H](O)[C@@H](OC)C(=O)[C@H](C)C[C@H](C)/C=C/C=C/C=C(\C)[C@H](OCCOC3COC3)C[C@@H]3CC[C@@H](C)[C@@](O)(O3)C(=O)C(=O)N3CCCC[C@H]3C(=O)O2)CC[C@H]1OC(=O)NCCN1CCOCC1 [I-20, [(42S,44R,46R)-4-[(2R)-2-[(27E,29E,31E,32E,38R,39S,40R,41R,43S,45S,47R,48S,50R,51R,61R)-50,61-dihydroxy-51-methoxy-38,39,40,41,52,53-hexamethyl-47-[2-(oxetan-3-yloxy)ethoxy]-54,55,56,57,58-pentaoxo-75,76-dioxa-64-azatricyclohexatriaconta-27,29,31(52),32(53)-tetraen-48-yl]propyl]-46-methoxy-44-cyclohexyl] N-(2-morpholinoethyl)carbamate] | Yes
10 to 100 | ≥ 1000 | COCCOCCO[C@@H]1C[C@@H]2CC[C@@H](C)[C@@](O)(O2)C(=O)C(=O)N2CCCC[C@H]2C(=O)O[C@H]([C@H](C)C[C@@H]2CC[C@@H](OC(F)F)[C@H](OC)C2)CC(=O)[C@H](C)/C=C(\C)[C@@H](O)[C@@H](OC)C(=O)[C@H](C)C[C@H](C)/C=C/C=C/C=C/1C [I-5, (22E,24E,26E,27E,33R,34S,35R,36R,38S,40S,42R,43S,44R,45R,55R)-43-[(1R)-2-[(1S,3R,4R)-4-(difluoromethoxy)-3-methoxy-cyclohexyl]-1-methyl-ethyl]-44,55-dihydroxy-45-methoxy-42-[2-(2-methoxyethoxy)ethoxy]-33,34,35,36,46,47-hexamethyl-64,65-dioxa-56-azatricyclohexatriaconta-22,24,26(46),27(47)-tetraene-48,49,50,51,52-pentone] | Yes
1 to 10 | ≥ 1000 | COCCOCCO[C@@H]1C[C@@H]2CC[C@@H](C)[C@@](O)(O2)C(=O)C(=O)N2CCCC[C@H]2C(=O)O[C@H]([C@H](C)C[C@@H]2CC[C@@H](OCCO)[C@H](OC)C2)CC(=O)[C@H](C)/C=C(\C)[C@@H](OC)[C@@H](OC)C(=O)[C@H](C)C[C@H](C)/C=C/C=C/C=C/1C [I-36, (23E,25E,27E,28E,36R,37S,38R,39R,41S,43S,45R,46S,47R,48R,57R)-57-hydroxy-46-[(1R)-2-[(1S,3R,4R)-4-(2-hydroxyethoxy)-3-methoxy-cyclohexyl]-1-methyl-ethyl]-47,48-dimethoxy-45-[2-(2-methoxyethoxy)ethoxy]-36,37,38,39,49,50-hexamethyl-66,67-dioxa-58-azatricyclohexatriaconta-23,25,27(49),28(50)-tetraene-51,52,53,54,55-pentone] | Yes
10 to 100 | ≥ 1000 | CO[C@@H]1/C(C)=C/[C@@H](C)C(=O)C[C@@H]([C@H](C)C[C@@H]2CC[C@@H](OC(F)F)[C@H](OC)C2)OC(=O)[C@@H]2CCCCN2C(=O)C(=O)[C@]2(O)O[C@@H](CC[C@H]2C)CC(OCC2COCCO2)/C(C)=C/C=C/C=C/[C@@H](C)C[C@@H](C)C(=O)[C@@H]1OC (stereo partly drawn) [I-8, (25E,27E,29E,30E,33R,34S,35R,36R,38S,40S,43S,45R,46R,56R)-43-[(1R)-2-[(1S,3R,4R)-4-(difluoromethoxy)-3-methoxy-cyclohexyl]-1-methyl-ethyl]-42-(1,4-dioxan-2-ylmethoxy)-56-hydroxy-45,46-dimethoxy-33,34,35,36,47,48-hexamethyl-66,67-dioxa-57-azatricyclohexatriaconta-25,27,29(47),30(48)-tetraene-49,50,51,52,53-pentone] | Yes
< 1 | ≥ 1000 | CO[C@@H]1C[C@H](C[C@@H](C)[C@@H]2CC(=O)[C@H](C)/C=C(\C)[C@@H](O)[C@@H](OC)C(=O)[C@H](C)C[C@H](C)/C=C/C=C/C=C(\C)C(OCCOC3COC3)C[C@@H]3CC[C@@H](C)[C@@](O)(O3)C(=O)C(=O)N3CCCC[C@H]3C(=O)O2)CC[C@H]1OC(=O)NCCN1CCOCC1 (stereo partly drawn) [I-19, [(42S,44R,46R)-4-[(2R)-2-[(27E,29E,31E,32E,38R,39S,40R,41R,43S,45S,48S,50R,51R,61R)-50,61-dihydroxy-51-methoxy-38,39,40,41,52,53-hexamethyl-47-[2-(oxetan-3-yloxy)ethoxy]-54,55,56,57,58-pentaoxo-75,76-dioxa-64-azatricyclohexatriaconta-27,29,31(52),32(53)-tetraen-48-yl]propyl]-46-methoxy-44-cyclohexyl] N-(2-morpholinoethyl)carbamate] | Yes
